Type in all cases: cell-based, human
For data set [1], the system named is C42B-EnzaRes cells. Briefly: Boyden chamber-based in vitro migration assay. Conditions: for cell migration with NME2 knockdown added: C42B-EnzaRes cells with knockdown of NME2. How it is done: (§1) FIGS. 21A-21F show MYC targeting is beneficial for patients in Enzalutamide-resistant conditions. (FIG. 21A) Drug sensitivity curves of Enzalutamide-naïve, or Enzalutamide-resistant (EnzaRes) C42B cells treated with MYCi975. (FIG. 21B) Colony formation assay using Enzalutamide-resistant (EnzaRes) C42B cells in Intact (treated with DMSO), treated with Enzalutamide (10 μM), MYCi975 (2 μM), or a combination of Enzalutamide+MYCi975 (10 μM+2 μM). Cells were grown in the presence of respective drugs. Representative images are shown. P-value was estimated using a one-tailed Welch t-test. (FIG. 21C) Boyden chamber-based in vitro migration assay using Enzalutamide-resistant (EnzaRes) C42B cells in Intact (treated with DMSO), treated with Enzalutamide (10 μM), MYCi975 (2 μM), or a combination of Enzalutamide+MYCi975 (10 μM+2 μM). Bars represent the quantification of Crystal Violet trapped by migrated cells. P-value was estimated using a one-tailed Welch t-test. (FIG. 21D) Expression of NME2 in Intact and Enzalutamide-resistant (EnzaRes) C42B cells, using the qRT-PCR. P-value was estimated using the one-tailed Welch t-test. (FIG. 21E) Two different siRNAs targeting NME2 were used to downregulate NME2 (left panel) and its effect on MYC expression using qRT-PCR is shown (right panel). (FIG. 21F) Boyden chamber-based in vitro migration assay using Enzalutamide-resistance (EnzaRes) C42B cells in Intact (treated with DMSO) or treated with a combination of Enzalutamide+MYCi975 (10 μM+2 μM) with or without knockdown of NME2. Bars represent the quantification of Crystal Violet trapped by migrated cells. * p-value<0.05, ** p-value≤0.01, *** p-value≤0.001

Data set [2] deals with C42B-EnzaRes cells. As to the kind of experiment: colony formation assay. Conditions: MYCi975 2 μM, Enzalutamide 10 μM, compared to Intact (DMSO). How it is done:
as §1, with “(FIG. 21E) Two different siRNAs targeting NME2 were used to downregulate NME2 (left panel) and its effect on MYC expression using qRT-PCR is shown (right panel). (FIG. 21F) Boyden chamber-based in vitro migration assay using Enzalutamide-resistance (EnzaRes) C42B cells in Intact (treated with DMSO) or treated with a combination of Enzalutamide+MYCi975 (10 μM+2 μM) with or without knockdown of NME2.” left out, “p-value≤0.001 […]” for “p-value≤0.001”

Data set [3] has as its system LNCaP cells. As to the kind of experiment: dose-response cell viability assay. Conditions: Enzalutamide-naïve and Enzalutamide-resistant conditions, varying doses, dose-dependent. How it is done:
(§2) FIGS. 22A and 22B show MYC inhibition reduces viability and colony formation in Enzalutamide resistant conditions. (FIG. 22A) Drug response curves of Enzalutamide naïve LNCaP or Enzalutamide-resistant LNCaP cells treated with Enzalutamide and/or MYC-i975. (FIG. 22B) Colony formation assay using Enzalutamide-resistant LNCaP cells t(LNCaP-Enza-Res) in intact (treated with DMSO), treated with enzalutamide (10 μM), MYC-i975 (2 μM), or a combination of Enzalutamide+MYC-i975 (10 μM+2 μM). Cells were grown in the presence of respective drugs. Bars represent quantification of Crystal Violet trapped by migrated cells. P-value is estimated utilizing one-tailed Welch t-test. * p<0.05, *** p≤0.001.
(§3) Generation of Enzalutamide-resistant cell lines: LNCaP (clone FDG) and C42B cells were purchased from ATCC and were grown in RPMI1640 media (GIBCO # 11875093) supplemented with 10% Fetal Bovine Serum (FBS, Corning Cat#35-011-CV) and maintained at […] in and 5% CO2. Enzalutamide powder was purchased from Sellekchem (cat #S1250) and re-suspended in DMSO. Cells were plated in 6 well plates and treated either with DMSO, or with Enzalutamide (20 uM), refreshed every 4 days for up to 3 months until the resistance emerged. RNA from cells was extracted on indicated days using the methods described below. […]

Data set [4] deals with C42B cells. Briefly: dose-response cell viability assay. Conditions: Enzalutamide-naïve and Enzalutamide-resistant conditions, varying doses, dose-dependent. How it is done: as §1, with “(FIG. 21E) Two different siRNAs targeting NME2 were used to downregulate NME2 (left panel) and its effect on MYC expression using qRT-PCR is shown (right panel). (FIG. 21F) Boyden chamber-based in vitro migration assay using Enzalutamide-resistance (EnzaRes) C42B cells in Intact (treated with DMSO) or treated with a combination of Enzalutamide+MYCi975 (10 μM+2 μM) with or without knockdown of NME2.” left out, “p-value≤0.001 […]” for “p-value≤0.001”

In data set [5] the test system is LNCaP-EnzaRes cells. As to the kind of experiment: colony formation assay. Conditions: MYCi975 2 μM, Enzalutamide 10 μM, compared to Intact (DMSO). On the procedure:
as §2, §3

Data set [6] concerns MYC. As to the kind of experiment: doxycycline-inducible shRNA knockdown of NME2, Western blot. Conditions: C4-2B cells, 0-2000 ng/mL doxycycline for 96 hours. On the procedure:
Finally, C4-2B cells expressing doxycycline-inducible shRNA targeting NME2 were generated using the targeting sequence […] (SEQ ID NO: 9). Cells were treated with 0-2000 ng/mL doxycycline for 96 hours and NME2 and MYC expression were evaluated by Western blot.
A general note: A western blot detects proteins with antibodies after separation by electrophoresis.

The source of these data is patent US20230326554A1, “IDENTIFYING TREATMENT RESPONSE SIGNATURES” (Rutgers, The State University of New Jersey, priority 2022, published 2023).

Regarding `CNC(=O)c1ccc(N2C(=S)N(c3ccc(C#N)c(C(F)(F)F)c3)C(=O)C2(C)C)cc1F` [Enzalutamide], the “cell migration with NME2 knockdown added” value in data set [1] is “low metastatic capability”.

Take `Cn1nc(C(F)(F)F)cc1-c1ccc(OCc2ccc(Cl)cc2)c(-c2ccc(Cl)c(C(F)(F)F)c2)c1O` [MYCi975]: the colony formation entry in data set [2] and in data set [5] was “reduced the colony formation” in each case. Besides, the cell viability result in data set [3] and in data set [4] was “striking reduction of the cell viability” throughout. Also, the “cell migration with NME2 knockdown added” value in data set [1] is “further reduced”. Also, the cell migration entry in data set [1] (C42B-EnzaRes cells, MYCi975 2 μM, Enzalutamide 10 μM, compared to Intact (DMSO)) was “significant reduction in cell migration”.

As to “shRNA targeting NME2: doxycycline-inducible shRNA targeting NME2, targeting sequence GAAATCAGCCTATGGTTTAAG (SEQ ID NO: 9)”, the MYC expression entry in data set [6] was “suppresses MYC expression”.
